Results reported in publication PMC10247784, “Physiological activation of human and mouse bitter taste receptors by bile acids” (Communications Biology, 2023).

Target: T1, mouse Tas2r105 (Mus musculus, UniProt Q9JKT4)
T1 construct: expressed in transfected cells; host or cells: HEK293T-Gα16gust44
T1 sequence (Q9JKT4 1-300): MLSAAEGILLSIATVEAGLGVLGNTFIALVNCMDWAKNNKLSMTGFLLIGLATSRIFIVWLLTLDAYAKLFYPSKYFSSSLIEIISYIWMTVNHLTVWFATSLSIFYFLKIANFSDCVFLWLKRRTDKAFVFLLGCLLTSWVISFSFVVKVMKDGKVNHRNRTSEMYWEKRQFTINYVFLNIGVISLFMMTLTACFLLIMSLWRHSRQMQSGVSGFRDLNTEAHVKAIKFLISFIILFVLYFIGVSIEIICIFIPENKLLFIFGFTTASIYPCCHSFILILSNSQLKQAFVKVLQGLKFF
Assay: Calcium imaging assay (FLIPR), HEK293T-Gα16gust44 cells transfected with mouse Tas2r105
Assay type: cell-based
Conditions: for Δ F/F: Tas2r105
Description: This set of bile acids was chosen because of their commercial availability in high purities, their diversity within the class of bile acids and their previous detection and quantitation in human blood. Stock solutions were prepared in DMSO.
As basal growth medium for the HEK293T-Gα16gust44 cell line[17],[59] served Dulbecco’s modified eagle medium (DMEM) (Thermo Fisher Scientific, Darmstadt, Germany) supplemented with 10 % fetal bovine serum (Sigma-Aldrich, Steinheim, Germany), 2 mM L-glutamine (Sigma-Aldrich, Steinheim, Germany), 100 units/ml penicillin (Sigma Aldrich, Steinheim, Germany) and 100 µg/ml streptomycin (Sigma Aldrich, Steinheim, Germany). Growth conditions were 37 °C, 5 % CO2 and saturated air-humidity[60].
HEK293T-Gα16gust44 cells were seeded on poly-D-lysine (10 µg/ml) coated 96-well plates to reach a confluence of 40-60 % the next day. For transient transfection 150 ng of plasmid DNA containing the receptor of interest and 0.3 µl lipofectamine 2000 (Thermo Fisher Scientific, Darmstadt, Germany) per well were used and transfection took place according to the manual of lipofectamine 2000. […] The empty vector DNA (mock) was transfected as negative control[14],[41].
Cells were loaded using the calcium-sensitive fluorescent dye Fluo-4-AM (Abcam, Cambridge, Great Britain) in the presence of 2.5 mM probenecid (Sigma-Aldrich, Steinheim, Germany) the day after transfection[13],[41]. 1 h after loading, cells were washed with C1 buffer using a BioTek Cell Washer, incubated in the dark for half an hour and washed again. For automated agonist application and measurement of fluorescence changes, a FLIPR^TETRA device (Molecular Devices, San José, United States) was used. Viability of cells was tested by application of 100 nM Somatostatin 14 (Bachem, Bubendorf, Switzerland)[42].
Measured data were negative control corrected by subtracting the signal of the mock-transfected cells and exported to Microsoft Excel using the FLIPR software ScreenWorks 4.2. In Microsoft Excel software, standardization of maximum fluorescence intensities to the basal fluorescence and normalization to the buffer-only control was done to calculate the relative fluorescence changes (ΔF/F).
Initial screening experiments performed in duplicate wells were confirmed by at least one replication and representative traces were selected for display. All dose-response relationships were determined by three independent experiments (biological replicates) performed in duplicates (technical replicates). Threshold concentrations, defined as lowest substance concentrations leading to statistically significant elevated fluorescence changes in receptor-transfected cells compared with empty vector-transfected cells, were determined using SigmaPlot with Student’s t-test to evaluate statistical significance (p < 0.01).

Δ F/F (conc. 0,01 mM): 0.004381
Δ F/F (conc. 0,1 mM): 0.01642
Δ F/F (conc. 0,03 mM): 0.01245
Δ F/F (conc. 0,3 mM): 0.0274
Δ F/F (conc. 0,001 mM): 0.003279
Δ F/F (conc. 1 mM): 0.07136
Δ F/F (conc. 0,003 mM): -0.003104
RLU (Time 0 s): 0 RLU
RLU (Time 2 s): -27.0595 RLU
RLU (Time 4 s): -18.6603 RLU
RLU (Time 6 s): -18.2123 RLU
RLU (Time 8 s): -47.8563 RLU
RLU (Time 12 s): -34.2819 RLU
RLU (Time 14 s): -34.7557 RLU
RLU (Time 16 s): -23.6188 RLU
RLU (Time 18 s): -16.5747 RLU
RLU (Time 18.781 s): -3.899 RLU
RLU (Time 20.781 s): -20.1413 RLU
RLU (Time 22.781 s): -4.143 RLU
RLU (Time 24.781 s): 15.6549 RLU
RLU (Time 26.781 s): 13.7683 RLU
RLU (Time 28.781 s): 17.1414 RLU
RLU (Time 30.781 s): 33.1924 RLU
RLU (Time 32.781 s): 40.0682 RLU
RLU (Time 34.781 s): 38.6999 RLU
RLU (Time 36.781 s): 117.771 RLU
RLU (Time 38.781 s): 121.11 RLU
RLU (Time 40.781 s): 113.511 RLU
RLU (Time 42.781 s): 141.314 RLU
RLU (Time 44.781 s): 160.969 RLU
RLU (Time 46.781 s): 200.571 RLU
RLU (Time 48.781 s): 228.76 RLU
RLU (Time 50.781 s): 238.054 RLU
RLU (Time 52.781 s): 279.774 RLU
RLU (Time 54.781 s): 314.942 RLU
RLU (Time 56.781 s): 299.791 RLU
RLU (Time 58.781 s): 350.668 RLU
RLU (Time 60.781 s): 363.761 RLU
RLU (Time 62.781 s): 387.64 RLU
RLU (Time 64.781 s): 388.62 RLU
RLU (Time 66.781 s): 424.095 RLU
RLU (Time 68.781 s): 419.549 RLU
RLU (Time 70.781 s): 443.973 RLU
RLU (Time 72.781 s): 413.221 RLU
RLU (Time 74.781 s): 419.192 RLU
RLU (Time 76.781 s): 460.126 RLU
RLU (Time 78.781 s): 478.685 RLU
RLU (Time 80.781 s): 487.49 RLU
RLU (Time 82.781 s): 529.97 RLU
RLU (Time 84.781 s): 535.792 RLU
RLU (Time 86.781 s): 528.828 RLU
RLU (Time 88.781 s): 565.311 RLU
RLU (Time 90.781 s): 546.96 RLU
RLU (Time 92.781 s): 541.782 RLU
RLU (Time 94.781 s): 524.334 RLU
RLU (Time 96.781 s): 507.8 RLU
RLU (Time 98.781 s): 505.738 RLU
RLU (Time 100.781 s): 510.912 RLU
RLU (Time 102.781 s): 470.239 RLU
RLU (Time 104.781 s): 497.869 RLU
RLU (Time 106.781 s): 500.977 RLU
RLU (Time 108.781 s): 492.243 RLU
RLU (Time 110.781 s): 525.903 RLU
RLU (Time 112.781 s): 501.6 RLU
RLU (Time 114.781 s): 517.173 RLU
RLU (Time 116.781 s): 514.443 RLU
RLU (Time 118.781 s): 515.53 RLU
RLU (Time 120.781 s): 497.17 RLU
RLU (Time 122.781 s): 525.829 RLU
RLU (Time 124.781 s): 530.193 RLU
RLU (Time 126.781 s): 525.829 RLU
RLU (Time 128.781 s): 520.174 RLU
RLU (Time 130.781 s): 519.565 RLU
RLU (Time 132.781 s): 551.214 RLU
RLU (Time 134.781 s): 551.693 RLU
RLU (Time 136.781 s): 519.874 RLU
RLU (Time 137.578 s): 524.174 RLU
RLU (Time 143.578 s): 517.004 RLU
RLU (Time 149.578 s): 507.474 RLU
RLU (Time 155.578 s): 522.299 RLU
RLU (Time 161.578 s): 476.762 RLU
RLU (Time 167.578 s): 499.828 RLU
RLU (Time 173.578 s): 455.735 RLU
RLU (Time 179.578 s): 459.26 RLU
RLU (Time 185.578 s): 429.678 RLU
RLU (Time 191.578 s): 409.042 RLU
RLU (Time 197.578 s): 394.775 RLU
RLU (Time 203.578 s): 421.467 RLU
RLU (Time 209.578 s): 379.61 RLU
RLU (Time 215.578 s): 405.275 RLU
RLU (Time 221.578 s): 372.014 RLU
RLU (Time 227.578 s): 339.525 RLU
RLU (Time 233.578 s): 348.807 RLU
RLU (Time 239.578 s): 313.214 RLU
RLU (Time 245.578 s): 300.083 RLU
RLU (Time 293.578 s): 317.696 RLU
RLU (Time 299.578 s): 309.428 RLU
RLU (Time 305.578 s): 321.267 RLU
RLU (Time 311.578 s): 329.776 RLU
RLU (Time 317.578 s): 375.676 RLU
RLU (Time 323.578 s): 369.197 RLU
RLU (Time 329.578 s): 335.975 RLU
RLU (Time 335.578 s): 363.52 RLU
RLU (Time 341.578 s): 327.284 RLU
RLU (Time 347.578 s): 338.669 RLU
RLU (Time 353.578 s): 324.825 RLU
RLU (Time 359.578 s): 287.782 RLU
Activation threshold concentration Tas2r105 (p < 0.01 vs empty vector): 300 µM
SMILES: C[C@H](CCC(=O)NCC(=O)O)[C@H]1CC[C@H]2[C@@H]3[C@H](O)C[C@@H]4C[C@H](O)CC[C@]4(C)[C@H]3C[C@H](O)[C@]12C [Glycocholic Acid, glycocholic acid]
